{
  "source": "paper PMC10287670",
  "about": "“A coiled-coil-based design strategy for the thermostabilization of G-protein-coupled receptors” (Scientific Reports, 2023)",
  "target": "T1, β3 adrenergic receptor (β3AR-cc3.1 chimera) (Homo sapiens, UniProt P13945, E36A/M86V/I125V/E126W/Y224A/F341M/Y346L)",
  "T1 construct": "gene ADRB3; Ala2 to Leu368 lacking Pro3 to Thr27, with Thermus thermophilus SRS antiparallel coiled coil cc3.1 inserted between Ala231 and Glu286 (replacing ICL3); N-terminal FLAG and C-terminal TwinStrep tags",
  "T1 sequence (P13945 2-368 E36A/M86V/I125V/E126W/Y224A/F341M/Y346L)": "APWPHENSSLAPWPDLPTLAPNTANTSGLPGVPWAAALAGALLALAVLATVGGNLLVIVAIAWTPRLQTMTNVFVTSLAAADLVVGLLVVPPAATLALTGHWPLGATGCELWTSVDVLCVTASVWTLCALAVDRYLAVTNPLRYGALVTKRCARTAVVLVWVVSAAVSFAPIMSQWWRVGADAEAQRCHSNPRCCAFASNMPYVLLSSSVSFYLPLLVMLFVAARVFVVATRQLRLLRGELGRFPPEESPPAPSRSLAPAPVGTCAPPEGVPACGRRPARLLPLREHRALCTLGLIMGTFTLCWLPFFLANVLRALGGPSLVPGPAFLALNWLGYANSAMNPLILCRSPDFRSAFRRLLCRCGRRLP",
  "assay": "radioligand saturation binding (SPA) on membranes of HEK-293S-GnTI- cells expressing β3AR-cc3.[…]",
  "data": [
    {"smiles": "CCCc1ccccc1OC[C@@H](O)CNC(C)C", "note": "[[3H]-dihydroalprenolol]", "values": [
      {"measurement": "Kd", "value": 150, "unit": "nM"}
    ]}
  ]
}
